Here are results for two molecules from US10328075B2, “Method of treatment and compounds for use therein” (Baker Heart and Diabetes Institute, priority 2015, dated 2019).

The subject of the assay is adult mouse cardiac fibroblasts. As to the kind of experiment: TGF-β stimulation of adult mouse cardiac fibroblasts, CTGF and IL-1β expression. In kind it is cell-based. The settings on record: 10 μM, 24 h TGF-β. On the procedure: Isolation and culture of primary rat cardiomyocytes and mouse cardiac fibroblasts: All materials used for cell isolation were of tissue culture grade. Isolation of primary neonatal rat cardiac cardiomyocytes (NRCM) and adult mouse cardiac fibroblasts (AMCF) was performed by serial enzymatic digestion, as previously described (Irvine et al 2012 & Irvine et al. 3) NRCM were plated onto either 12-well tissue culture plates (for simulated ischemia-reperfusion, via hypoxia-reoxygenation, H-R) or 60 mm tissue culture dishes (for gene expression) at a density of 1.3×10^5 cells/cm^2, in the presence of 1% 5-bromo-2′-deoxyuridine. AMCF (passage #3) were seeded onto 60 mm tissue culture dishes at 9.5×10^4 cells/cm^2 and allowed to grow to 80% confluence prior to study. […] At the end of hypoxia, Kreb's buffer was replaced with fresh, sterile-filtered Kreb's buffer, in the presence or absence of FPR agonists Cmpd17b, Cmpd43 (both 1 μM or vehicle, and NRCM were subjected to 48 h reoxygenation at 37° C. At the end of 48 h reoxygenation, NRCM supernatant was collected for assessment of cardiomyocyte injury. Cardiomyocyte release of cTnI was determined using a commercially available, high-sensitivity rat cTnI ELISA kit (Life Diagnostic Inc.) as per the manufacturer's instructions. Separate NRVM on 60 mm dishes were incubated for 48 h at 37° C. in serum-free DMEM, in the presence or absence of FPR agonists Cmpd17b, Cmpd43 (both 1 μM) or vehicle. At the end of 48 h, RNA was extracted and real-time PCR performed (as described previously (Huynh et al. 2012)), to determine the relative gene expression of rat Fprs (rFpr1, rFpr2 and rFpr3, expressed as the threshold cycle number Ct subtracted from the maximum cycle number utilized, 40). […]
Cardiomyocytes injury responses in vitro: Neonatal rat cardiomyocytes and adult mouse cardiofibroblasts were isolated and cultured as described (online Supplement). […] Cardiomyocyte injury was assessed by measurement of cardiac cTnI in cardiomyocyte supernatant. […]

On to `COc1cccc(Cc2cc(C)nn(C(C)C(=O)Nc3ccc(Br)cc3)c2=O)c1` (stereo not drawn) [BIDI-001, N-(4-bromophenyl)-2-[5-(3-methoxybenzyl)-3-methyl-6-oxo-6H-pyridazin-1-yl]-propionamide], for which the “TGF-β-induced pro-inflammatory IL-1β response in cardiofibroblasts” value is on record as “not”. Turning to `CC(C)C1C(NC(=O)Nc2ccc(Cl)cc2)C(=O)N(c2ccccc2)N1C` (stereo not drawn) [BIDI-002], the “Pro-fibrotic CTGF response to TGF-β in cardiofibroblasts” value is “remained significant” and the “TGF-β-induced pro-inflammatory IL-1β response in cardiofibroblasts” value is listed as “tended to persist”.
